Key:
CuAβ1–16 complex = CuAβ1–16 complex (Homo sapiens, UniProt P05067); assay type: biochemical; settings: pH 7.4
CuZnAβ1–16 = CuZnAβ1–16 (Homo sapiens, UniProt P05067); assay type: biochemical; settings: pH 7.4

ROS production: % of Asc consumption in 30 min (CuAβ1–16 complex): 11.3%
ROS production: % of ROS arrest (CuAβ1–16 complex): 88.7%
ROS production: % of Asc consumption in 30 min (CuZnAβ1–16): 100%
ROS production: % of ROS arrest (CuZnAβ1–16): 0%
SMILES: O=C(O)CN(CCN(CC(=O)O)CC(=O)O)CC(=O)O [EDTA, 2,2′,2′′,2′′′-(ethane-1,2-diyldinitrilo)tetraacetic acid]
